Data as given in ChEMBL document CHEMBL1201862, “PubChem BioAssay data set” (2004).
Calls of active or inactive are those of the source.

Columns and labels:
[1] = target: T1, Sentrin-specific protease 7 (Homo sapiens, UniProt Q9BQF6); assay: SENP7 protease inhibitors, SAR follow-up, biochemical, luminescence (AID 504497); type: functional
T1 sequence (Q9BQF6 whole entry): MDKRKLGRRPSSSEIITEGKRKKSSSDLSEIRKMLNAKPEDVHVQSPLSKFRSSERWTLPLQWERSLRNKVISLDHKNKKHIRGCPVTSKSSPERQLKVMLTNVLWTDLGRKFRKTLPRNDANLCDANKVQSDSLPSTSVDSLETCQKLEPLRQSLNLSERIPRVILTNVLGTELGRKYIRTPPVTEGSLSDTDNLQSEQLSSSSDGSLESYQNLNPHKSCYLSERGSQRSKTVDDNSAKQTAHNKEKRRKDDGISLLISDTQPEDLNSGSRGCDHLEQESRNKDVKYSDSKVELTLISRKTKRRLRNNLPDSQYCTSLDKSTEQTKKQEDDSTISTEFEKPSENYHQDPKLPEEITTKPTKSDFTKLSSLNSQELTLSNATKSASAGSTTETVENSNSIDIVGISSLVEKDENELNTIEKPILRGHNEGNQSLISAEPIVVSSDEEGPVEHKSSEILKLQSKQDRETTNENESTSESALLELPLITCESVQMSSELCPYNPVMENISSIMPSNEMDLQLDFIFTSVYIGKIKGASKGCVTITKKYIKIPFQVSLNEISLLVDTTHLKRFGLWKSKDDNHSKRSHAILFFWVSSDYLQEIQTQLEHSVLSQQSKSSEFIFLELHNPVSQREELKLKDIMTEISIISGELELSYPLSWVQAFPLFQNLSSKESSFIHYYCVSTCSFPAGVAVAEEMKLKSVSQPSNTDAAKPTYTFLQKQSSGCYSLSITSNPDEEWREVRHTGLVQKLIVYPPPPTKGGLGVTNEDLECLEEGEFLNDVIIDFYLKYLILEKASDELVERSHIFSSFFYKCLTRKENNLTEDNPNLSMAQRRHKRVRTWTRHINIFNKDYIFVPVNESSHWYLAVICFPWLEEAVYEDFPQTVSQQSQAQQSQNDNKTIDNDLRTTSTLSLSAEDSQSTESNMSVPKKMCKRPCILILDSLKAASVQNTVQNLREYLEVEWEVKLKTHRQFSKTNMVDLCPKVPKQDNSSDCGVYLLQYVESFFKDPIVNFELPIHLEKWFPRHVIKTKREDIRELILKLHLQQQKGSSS

[2] = target: T2, Protein RecA (Mycobacterium tuberculosis, UniProt P9WHJ3); assay: Fluorescence Cell-Free Homogeneous Dose Retest to Identify Inhibitors of RecA-Intein Splicing Activity. [Related pubchem assays (depositor defined):AID2097, AID2223, AID489010, AID492950]; type: functional
T2 sequence (P9WHJ3 whole entry): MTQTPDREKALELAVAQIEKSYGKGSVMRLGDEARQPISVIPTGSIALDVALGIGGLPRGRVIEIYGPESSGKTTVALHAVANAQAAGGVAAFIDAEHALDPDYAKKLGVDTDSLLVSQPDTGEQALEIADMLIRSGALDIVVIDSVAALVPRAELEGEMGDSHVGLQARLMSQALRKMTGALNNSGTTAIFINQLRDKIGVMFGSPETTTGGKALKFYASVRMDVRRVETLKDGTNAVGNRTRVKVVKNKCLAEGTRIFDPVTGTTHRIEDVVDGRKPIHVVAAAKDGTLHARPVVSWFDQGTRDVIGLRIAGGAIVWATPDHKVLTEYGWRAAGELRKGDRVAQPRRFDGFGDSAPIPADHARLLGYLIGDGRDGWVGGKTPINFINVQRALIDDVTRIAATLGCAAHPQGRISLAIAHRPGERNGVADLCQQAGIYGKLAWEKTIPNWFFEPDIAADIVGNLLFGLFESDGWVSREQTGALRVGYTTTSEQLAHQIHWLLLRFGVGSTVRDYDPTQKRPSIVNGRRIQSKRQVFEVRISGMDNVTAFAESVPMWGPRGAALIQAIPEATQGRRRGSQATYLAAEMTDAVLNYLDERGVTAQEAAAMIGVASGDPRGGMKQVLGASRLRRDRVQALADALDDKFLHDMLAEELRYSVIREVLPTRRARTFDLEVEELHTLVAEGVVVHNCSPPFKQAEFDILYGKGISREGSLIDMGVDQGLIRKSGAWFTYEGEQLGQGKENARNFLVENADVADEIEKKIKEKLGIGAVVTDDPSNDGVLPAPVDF

[3] = target: Mitogen-activated protein kinase kinase kinase kinase 4 (Homo sapiens, UniProt O95819); type: functional
[4] = target: Tyrosine-protein kinase ABL1 (Homo sapiens, UniProt P00519); type: functional
Sequence of Tyrosine-protein kinase ABL1 (P00519 whole entry): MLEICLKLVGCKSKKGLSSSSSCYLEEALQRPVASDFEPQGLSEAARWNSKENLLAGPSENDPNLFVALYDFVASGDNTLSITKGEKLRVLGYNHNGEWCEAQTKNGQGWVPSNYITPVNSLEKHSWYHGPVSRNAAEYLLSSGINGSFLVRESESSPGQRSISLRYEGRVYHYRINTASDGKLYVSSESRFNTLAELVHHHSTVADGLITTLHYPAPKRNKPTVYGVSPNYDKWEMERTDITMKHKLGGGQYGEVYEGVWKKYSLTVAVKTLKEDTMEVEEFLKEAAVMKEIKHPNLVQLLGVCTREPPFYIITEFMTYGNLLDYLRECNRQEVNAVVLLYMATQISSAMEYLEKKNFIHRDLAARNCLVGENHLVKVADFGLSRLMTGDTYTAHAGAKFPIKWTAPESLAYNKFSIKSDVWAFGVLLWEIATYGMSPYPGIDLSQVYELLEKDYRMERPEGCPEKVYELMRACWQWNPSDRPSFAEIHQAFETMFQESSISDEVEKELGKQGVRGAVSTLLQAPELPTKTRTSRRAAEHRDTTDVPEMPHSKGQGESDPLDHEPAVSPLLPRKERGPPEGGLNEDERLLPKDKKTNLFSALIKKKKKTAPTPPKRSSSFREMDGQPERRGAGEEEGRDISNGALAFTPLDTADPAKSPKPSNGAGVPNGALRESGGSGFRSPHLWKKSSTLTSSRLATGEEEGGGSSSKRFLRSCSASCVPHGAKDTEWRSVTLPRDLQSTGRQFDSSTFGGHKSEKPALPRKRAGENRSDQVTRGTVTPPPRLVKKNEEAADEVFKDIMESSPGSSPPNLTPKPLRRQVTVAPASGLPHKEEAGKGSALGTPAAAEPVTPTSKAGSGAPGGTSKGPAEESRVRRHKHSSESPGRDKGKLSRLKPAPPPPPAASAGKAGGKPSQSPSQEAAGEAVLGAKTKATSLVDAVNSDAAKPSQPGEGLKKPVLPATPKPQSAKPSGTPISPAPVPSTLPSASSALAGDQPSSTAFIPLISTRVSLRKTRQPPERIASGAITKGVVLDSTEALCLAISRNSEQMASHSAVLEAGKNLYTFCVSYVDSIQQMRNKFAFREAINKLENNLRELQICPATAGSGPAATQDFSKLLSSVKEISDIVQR

[5] = target: Tyrosine-protein kinase Fyn (Homo sapiens, UniProt P06241); type: functional
Sequence of Tyrosine-protein kinase Fyn (P06241 whole entry): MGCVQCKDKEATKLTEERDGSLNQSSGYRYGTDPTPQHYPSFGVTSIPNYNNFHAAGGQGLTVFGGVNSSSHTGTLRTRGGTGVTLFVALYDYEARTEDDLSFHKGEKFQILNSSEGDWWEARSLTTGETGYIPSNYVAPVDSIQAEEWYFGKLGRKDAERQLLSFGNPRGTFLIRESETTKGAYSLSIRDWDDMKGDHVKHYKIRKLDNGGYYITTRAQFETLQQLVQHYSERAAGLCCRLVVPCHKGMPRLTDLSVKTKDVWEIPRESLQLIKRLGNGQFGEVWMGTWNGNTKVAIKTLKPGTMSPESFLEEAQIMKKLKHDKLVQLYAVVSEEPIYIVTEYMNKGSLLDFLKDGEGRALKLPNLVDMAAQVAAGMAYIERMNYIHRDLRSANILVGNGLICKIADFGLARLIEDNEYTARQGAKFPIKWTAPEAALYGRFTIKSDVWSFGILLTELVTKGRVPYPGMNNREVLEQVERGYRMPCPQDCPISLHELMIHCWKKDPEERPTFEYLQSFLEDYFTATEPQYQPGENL

[6] = target: Leucine-rich repeat serine/threonine-protein kinase 2 (Homo sapiens, UniProt Q5S007); type: functional;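 note: value from a broad kinome-wide panel profiling study in which LRRK2 was one of the kinases tested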
[7] = target: G protein-coupled receptor kinase 5 (Homo sapiens, UniProt P34947); assay: Navigating the Kinome. Panel member name: GPRK5; type: functional
Sequence of G protein-coupled receptor kinase 5 (P34947 whole entry): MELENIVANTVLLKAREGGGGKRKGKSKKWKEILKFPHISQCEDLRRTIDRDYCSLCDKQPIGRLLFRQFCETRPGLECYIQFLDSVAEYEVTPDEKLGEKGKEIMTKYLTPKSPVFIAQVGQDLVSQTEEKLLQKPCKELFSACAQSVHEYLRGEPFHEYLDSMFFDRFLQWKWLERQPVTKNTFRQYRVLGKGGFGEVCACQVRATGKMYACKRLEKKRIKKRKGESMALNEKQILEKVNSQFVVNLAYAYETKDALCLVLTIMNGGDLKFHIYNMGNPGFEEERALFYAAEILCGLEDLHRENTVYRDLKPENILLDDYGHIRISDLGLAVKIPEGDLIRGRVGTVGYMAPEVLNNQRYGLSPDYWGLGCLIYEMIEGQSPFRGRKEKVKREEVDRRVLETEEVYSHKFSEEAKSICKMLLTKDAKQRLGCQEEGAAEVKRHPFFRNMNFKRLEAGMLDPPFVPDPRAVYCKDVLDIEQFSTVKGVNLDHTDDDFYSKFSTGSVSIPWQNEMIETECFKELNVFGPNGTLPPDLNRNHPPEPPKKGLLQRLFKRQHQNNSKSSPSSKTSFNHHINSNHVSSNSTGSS

[8] = target: Glycogen synthase kinase-3 beta (Homo sapiens, UniProt P49841); type: functional;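 note: value comes from a broad kinome profiling panel, with GSK3B as the panel member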
Sequence of Glycogen synthase kinase-3 beta (P49841 whole entry): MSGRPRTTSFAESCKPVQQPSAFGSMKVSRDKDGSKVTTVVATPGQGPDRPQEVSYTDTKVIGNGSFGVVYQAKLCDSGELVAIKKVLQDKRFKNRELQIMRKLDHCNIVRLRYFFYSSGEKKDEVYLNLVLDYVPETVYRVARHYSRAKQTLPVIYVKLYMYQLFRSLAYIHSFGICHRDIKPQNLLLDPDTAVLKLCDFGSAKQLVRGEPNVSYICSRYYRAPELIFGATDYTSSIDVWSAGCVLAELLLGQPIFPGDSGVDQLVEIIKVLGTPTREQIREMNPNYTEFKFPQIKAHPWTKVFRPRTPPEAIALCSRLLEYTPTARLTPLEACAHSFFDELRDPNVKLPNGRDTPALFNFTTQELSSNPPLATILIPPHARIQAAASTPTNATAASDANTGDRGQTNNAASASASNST

[9] = target: Serine/threonine-protein kinase pim-1 (Homo sapiens, UniProt P11309); type: functional
Sequence of Serine/threonine-protein kinase pim-1 (P11309 whole entry): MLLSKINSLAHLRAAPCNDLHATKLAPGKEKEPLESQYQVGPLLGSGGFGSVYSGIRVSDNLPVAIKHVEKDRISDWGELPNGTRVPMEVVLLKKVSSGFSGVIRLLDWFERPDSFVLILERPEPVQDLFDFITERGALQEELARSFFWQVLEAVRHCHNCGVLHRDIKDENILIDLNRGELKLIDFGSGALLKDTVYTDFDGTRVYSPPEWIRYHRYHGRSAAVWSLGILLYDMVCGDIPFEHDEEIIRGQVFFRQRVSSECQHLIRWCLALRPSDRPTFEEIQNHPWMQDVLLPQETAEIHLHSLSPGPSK

[10] = target: Fibroblast growth factor receptor 1 (Homo sapiens, UniProt P11362); type: functional
[11] = target: cAMP-dependent protein kinase catalytic subunit alpha (Homo sapiens, UniProt P17612); type: functional
[12] = target: Dual specificity tyrosine-phosphorylation-regulated kinase 1B (Homo sapiens, UniProt Q9Y463); assay: Navigating the Kinome. Panel member name: DYRK1B; type: functional
Sequence of Dual specificity tyrosine-phosphorylation-regulated kinase 1B (Q9Y463 whole entry): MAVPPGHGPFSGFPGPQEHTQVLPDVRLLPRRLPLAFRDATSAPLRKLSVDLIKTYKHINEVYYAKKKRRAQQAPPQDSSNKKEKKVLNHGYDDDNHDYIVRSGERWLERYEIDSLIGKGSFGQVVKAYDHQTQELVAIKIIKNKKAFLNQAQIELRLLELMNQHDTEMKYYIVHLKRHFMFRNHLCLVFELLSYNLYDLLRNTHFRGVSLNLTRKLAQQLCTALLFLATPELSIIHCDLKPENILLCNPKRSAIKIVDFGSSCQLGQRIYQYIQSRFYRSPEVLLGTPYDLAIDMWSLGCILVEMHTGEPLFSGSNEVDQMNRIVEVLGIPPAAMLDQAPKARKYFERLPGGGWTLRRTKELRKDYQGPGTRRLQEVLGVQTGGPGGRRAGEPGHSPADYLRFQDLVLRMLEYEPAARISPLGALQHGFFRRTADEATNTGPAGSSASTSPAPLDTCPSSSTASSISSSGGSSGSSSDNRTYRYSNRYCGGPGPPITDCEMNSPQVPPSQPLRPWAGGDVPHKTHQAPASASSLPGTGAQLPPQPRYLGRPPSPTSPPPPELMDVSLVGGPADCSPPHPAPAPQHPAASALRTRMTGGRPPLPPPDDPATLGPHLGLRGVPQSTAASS

[13] = target: Rho-associated protein kinase 1 (Homo sapiens, UniProt Q13464); type: functional;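 note: measured within a broad kinome-wide panel profiling many kinases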
[14] = target: Cyclin-dependent kinase 5 (Homo sapiens, UniProt Q00535); type: functional;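 note: CDK5 measured as one member of a kinase profiling panel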
Sequence of Cyclin-dependent kinase 5 (Q00535 whole entry): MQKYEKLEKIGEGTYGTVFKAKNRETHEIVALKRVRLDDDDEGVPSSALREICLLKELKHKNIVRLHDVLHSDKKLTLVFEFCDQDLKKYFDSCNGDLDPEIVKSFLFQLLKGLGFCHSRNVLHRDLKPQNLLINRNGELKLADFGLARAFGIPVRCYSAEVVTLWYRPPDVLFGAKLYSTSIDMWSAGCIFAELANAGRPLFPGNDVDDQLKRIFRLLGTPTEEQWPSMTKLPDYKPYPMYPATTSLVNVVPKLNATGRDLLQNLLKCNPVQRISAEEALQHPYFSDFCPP

[15] = target: Tyrosine-protein kinase JAK2 (Homo sapiens, UniProt O60674); type: functional;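 note: JAK2 tested as one member of a kinase panel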
Sequence of Tyrosine-protein kinase JAK2 (O60674 whole entry): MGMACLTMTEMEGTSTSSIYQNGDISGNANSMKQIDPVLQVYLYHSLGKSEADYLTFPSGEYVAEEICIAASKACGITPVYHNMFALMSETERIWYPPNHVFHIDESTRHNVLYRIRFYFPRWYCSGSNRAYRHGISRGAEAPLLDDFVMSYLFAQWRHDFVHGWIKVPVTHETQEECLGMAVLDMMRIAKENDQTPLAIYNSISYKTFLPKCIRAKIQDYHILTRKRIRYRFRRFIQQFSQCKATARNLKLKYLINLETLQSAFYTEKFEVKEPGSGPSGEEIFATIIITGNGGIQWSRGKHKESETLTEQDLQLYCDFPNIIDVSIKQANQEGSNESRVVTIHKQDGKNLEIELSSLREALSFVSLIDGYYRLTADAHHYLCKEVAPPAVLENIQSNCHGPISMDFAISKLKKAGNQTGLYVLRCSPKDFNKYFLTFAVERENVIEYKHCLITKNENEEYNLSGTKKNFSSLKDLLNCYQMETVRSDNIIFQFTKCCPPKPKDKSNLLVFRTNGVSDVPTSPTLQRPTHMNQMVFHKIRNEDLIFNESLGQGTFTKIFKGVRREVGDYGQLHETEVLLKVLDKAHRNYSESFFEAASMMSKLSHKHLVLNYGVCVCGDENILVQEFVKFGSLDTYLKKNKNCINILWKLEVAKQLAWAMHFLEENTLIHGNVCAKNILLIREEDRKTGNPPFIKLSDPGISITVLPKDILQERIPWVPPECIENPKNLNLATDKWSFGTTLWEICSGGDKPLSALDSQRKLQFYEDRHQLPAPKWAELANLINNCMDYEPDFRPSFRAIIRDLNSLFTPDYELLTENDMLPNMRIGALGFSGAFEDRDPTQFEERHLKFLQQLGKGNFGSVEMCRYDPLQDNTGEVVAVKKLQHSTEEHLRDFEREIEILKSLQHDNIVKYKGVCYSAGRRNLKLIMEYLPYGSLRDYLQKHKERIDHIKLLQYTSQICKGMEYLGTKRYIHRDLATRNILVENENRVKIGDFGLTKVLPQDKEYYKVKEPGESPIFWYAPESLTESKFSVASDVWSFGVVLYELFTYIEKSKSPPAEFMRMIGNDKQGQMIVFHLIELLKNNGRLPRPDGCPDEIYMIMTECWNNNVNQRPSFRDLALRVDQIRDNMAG

[16] = Luminescence Cell-Based Dose Response HTS to Identify Inhibitors of 5'UTR Stem-Loop Driven Prion Protein mRNA Translation in H4 Neuroglioblastoma Cells. [Related pubchem assays: 1827 (Project Summary), 1813 (Primary HTS)]; type: functional
[17] = target: Matrix metalloproteinase-14 (Homo sapiens, UniProt P50281); assay: Dose Response confirmation of uHTS hits for a small molecule inhibitors of MT1-MMP activation in a fluorescence assay set 1.; type: functional
[18] = test system: Streptococcus; assay: Group A Streptococcus viability loss, dose response, counter-screen for streptokinase expression inhibitor project, luminescence, BacTiterGlo (AID 1915); type: functional, organism-based;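 note: potency for reduction of bacterial viability or growth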

Cc1ccc(NC(=O)COc2cccc(/C=C3\SC(=S)N(CCC(=O)O)C3=O)c2)cc1Cl
IC50 [1]: 12.7 µM (active) | EC50 [2]: 19.1 µM (active)

COc1cccc(C(C)NC(=O)c2ccc(-c3ccncc3)s2)c1 (stereo not drawn)
Ki [3]: 5.01 µM (active) | Ki [4]: > 2.51 µM (inactive) | Ki [5]: > 6.31 µM (inactive) | Ki [6]: > 2.51 µM (inactive) | Ki [7]: 1 µM (active) | Ki [8]: 1.26 µM (active) | Ki [9]: > 6.31 µM (inactive) | Ki [10]: > 3.98 µM (inactive) | Ki [11]: 0.0794 µM (active) | Ki [12]: > 2.51 µM (inactive) | Ki [13]: 0.00126 µM (active) | Ki [14]: > 3.16 µM (inactive) | Ki [15]: > 2.51 µM (inactive)

O=Nc1c(-c2c(O)[nH]c3cc(Br)ccc23)[nH]c2ccccc12
EC50 [16]: > 120 µM (not active) | IC50 [17]: 1.78 µM (active) | EC50 [18]: 3.48 µM (active)
